Experiments:
[1] = target: T1, activated human blood coagulation factor X (Homo sapiens, UniProt P00742); assay: Determination of activity of inhibiting the activated blood-coagulation factor X (chromogenic substrate, initial rate); assay type: biochemical; settings: tris hydrochloride buffer pH 8.4, room temperature, absorbance 405 nm; for IC50: read-out: Activity of inhibiting activated blood coagulation factor X (pIC50) (converted)
T1 construct: purchased Enzyme Research Co
Method: Determination of Activity of Inhibiting the Activated Blood-coagulation Factor X
130 μl of 100 mM tris hydrochloride buffer adjusted to pH 8.4 was added to 10 μl of an aqueous solution of a compound to be tested. Then 10 μl of a 0.5 unit/ml solution of activated human blood coagulation factor X (a product of Enzyme Research Co.) in tris hydrochloride of pH 8.4 was added to the resultant mixture. After the incubation at room temperature for 10 minutes, 50 μl of a solution of N-benzoyl-L-isoleucyl-L-glutamyl-glycyl-L-arginyl-P-nitroanilide hydrochloride (a product of Peptide Institute, Inc.) adjusted to 0.8 mM with tris hydrochloride (pH 8.4) was added thereto. The absorbance was determined and then the initial reaction rate was determined. A control was prepared in the same manner as that described above except that the solution of the compound to be tested was replaced with 10 μl of tris hydrochloride buffer adjusted to pH 8.4. The absorbance was determined with MICROPLATE READER Model 3550-UV (a product of BIO RAD) at a wave length of 405 nm at intervals of 15 seconds for 16 minutes.

human thrombin = target: T2, human thrombin (Homo sapiens, UniProt P00734); assay: Determination of thrombin-inhibiting activity (chromogenic substrate S-2238, initial rate); assay type: biochemical; settings: tris hydrochloride buffer pH 8.4, room temperature, absorbance 405 nm; for IC50: read-out: Thrombin-inhibiting activity (pIC50) (converted)
T2 construct: solution of human thrombin (a product of SIGMA Co.); purchased SIGMA Co
Method: Determination of Thrombin-inhibiting Activity
130 μl of 100 mM tris hydrochloride buffer adjusted to pH 8.4 was added to 10 μl of an aqueous solution of a test compound. Then 10 μl of a solution of human thrombin (a product of SIGMA Co.) adjusted to 2 units/ml with tris hydrochloride buffer of pH 8.4 was added to the resultant mixture. After the incubation at room temperature for 10 minutes, 50 μl of a solution of D-phenylalanyl-L-pipecolyl-L-arginyl-P-nitroanilide dihydrochloride (S-2238; a product of Daiichi Kagaku Yakuhin Co.) adjusted to 0.4 mM with tris hydrochloride buffer of pH 8.4 was added thereto. The absorbance was determined and then the initial reaction rate was determined. A control was prepared in the same manner as that described above except that the solution of the compound to be tested was replaced with 10 μl of tris hydrochloride buffer adjusted to pH 8.4. The absorbance was determined with MICROPLATE READER Model 3550-UV (a product of […]) at a wave length of 405 nm at intervals of 15 seconds for 16 minutes.

T1 sequence (P00742 235-488 limits assumed): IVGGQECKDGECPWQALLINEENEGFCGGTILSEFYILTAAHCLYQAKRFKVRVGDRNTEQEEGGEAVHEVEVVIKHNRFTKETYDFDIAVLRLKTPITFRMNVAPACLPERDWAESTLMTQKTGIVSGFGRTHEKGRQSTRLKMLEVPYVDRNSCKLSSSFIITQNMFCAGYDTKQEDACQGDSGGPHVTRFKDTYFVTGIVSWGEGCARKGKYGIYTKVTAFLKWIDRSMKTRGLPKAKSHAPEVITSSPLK
T1 sequence (P00742 41-179 partner limits assumed): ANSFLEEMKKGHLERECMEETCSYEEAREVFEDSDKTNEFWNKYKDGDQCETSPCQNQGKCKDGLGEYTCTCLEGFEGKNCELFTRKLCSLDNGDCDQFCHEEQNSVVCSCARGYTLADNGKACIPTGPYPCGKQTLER

IC50 [1] [nM]	IC50 (human thrombin) [nM]	Compound	Activity of inhibiting activated blood coagulation factor X (pIC50) [1]	Thrombin-inhibiting activity (pIC50) (human thrombin)
		N=C(N)c1ccc(CO)c(OCCNC(=O)C2CCN(c3ccncc3)CC2)c1.O=C(O)C(F)(F)F.O=C(O)C(F)(F)F [Compd. of Ex. 37, N-[2-(5-amidino-2-hydroxymethylphenoxy)ethyl]-1-(1-(1-pyridine-4-yl)piperidine)carboxamide bistrifluoroacetate]	7.3	<4.0
25.1	> 794000	N=C(N)c1ccc(CCC(=O)O)c(OC[C@@H](CC(=O)O)NC(=O)C2CCN(c3ccncc3)CC2)c1 [Compd. of Ex. 13, (3R)-4-[5-amidino-2-(2-carboxyethyl)phenoxy]-3-[(1-(pyridine-4-yl)piperidine-4-carbonyl)amino]butanoic acid bistrifluoroacetate]		
		ethyl (3R)-4-[5-amidino-2-(2-ethoxycarbonylethyl)phenoxy]-3-[4-(1-(1-acetimidoyl)-4-piperidyloxy)benzoylamino]butanoate bistrifluoroacetate [Compd. of Ex. 9]		5.5
		3-[4-amidino-(2R)-2-((1-(pyridine-4-yl)piperidine-4-carbonyl)pyrrolidine-2-ylmethoxy)phenyl]propionic acid bistrifluoroacetate [Compd. of Ex. 26]	7.8	<4.0
12.6	> 100000	N=C(N)c1ccc(O)c(OC[C@@H](CC(=O)O)NC(=O)C2CCN(c3ccncc3)CC2)c1 [Compd. of Ex. 29, (3R)-4-(5-amidino-2-hydroxyphenoxy)-3-[(1-(pyridine-4-yl)piperidine-4-carbonyl)amino]butanoic acid bistrifluoroacetate]		
		(3R)-3-[4-amidino-2-(3-ethoxycarbonyl-2-(4-(1-(1-acetimidoyl)-4-piperidyloxy)benzoylamino)propoxy)phenyl]acrylic acid bistrifluoroacetate [Compd. of Ex. 8]		<3.0
15.8	> 100000	CC(=N)N1CCC(Oc2ccc(C(=O)N[C@@H](COc3cc(C(=N)N)ccc3O)CC(=O)O)cc2)CC1 [Compd. of Ex. 28, (3R)-4-(5-amidino-2-hydroxyphenoxy)-3-[4-(1-acetimidoyl-4-piperidyloxy)benzoylamino]butanoic acid bistrifluoroacetate]		
		CC(=N)N1CCC(Oc2ccc(C(=O)NCCOc3cc(C(=N)N)ccc3C=CC(=O)O)cc2)CC1.O=C(O)C(F)(F)F.O=C(O)C(F)(F)F [Compd. of Ex. 2, 3-[4-amidino-2-(2-(4-(1-(1-acetimidoyl)-4-piperidyloxy)benzoylamino)ethoxy)phenyl]acrylic acid bistrifluoroacetate]		<3.0
		N=C(N)c1ccc(CCCO)c(OCCNC(=O)C2CCN(c3ccncc3)CC2)c1.O=C(O)C(F)(F)F.O=C(O)C(F)(F)F [Compd. of Ex. 43, N-[2-(5-amidino-2-hydroxypropylphenoxy)ethyl]-1-(1-(1-pyridine-4-yl)piperidine)carboxamide bistrifluoroacetate]	7.8	<4.0
63.1	6310	CCOC(=O)CCc1ccc(C(=N)N)cc1OCCNC(=O)C1CCN(c2ccncc2)CC1 [Compd. of Ex. 5, ethyl 3-[4-amidino-2-(2-((1-(pyridine-4-yl)piperidine-4-carbonyl)amino)ethoxy)phenyl]propionate bistrifluoroacetate]		
15.8	> 100000	CC(=N)N1CCC(Oc2ccc(C(=O)NCCOc3cc(C(=N)N)ccc3O)cc2)CC1 [Compd. of Ex. 14, N-[2-(5-amidino-2-hydroxyphenoxy)ethyl]-4-(1-acetimidoyl-4-piperidyloxy)benzamide bistrifluoroacetate]		
		COC(=O)c1ccc(C(=N)N)cc1OCCNC(=O)c1ccc(OC2CCN(C(C)=N)CC2)cc1.O=C(O)C(F)(F)F.O=C(O)C(F)(F)F [Compd. of Ex. 38, methyl 4-amidino-2-[2-(4-[1-(1-acetimidoyl)-4-piperidyloxy]benzoylamino)ethoxy]benzoate bistrifluoroacetate]		3.3
		CC(=N)N1CCC(Oc2ccc(C(=O)N[C@@H](COc3cc(C(=N)N)ccc3CCC(=O)O)CC(=O)O)cc2)CC1.O=C(O)C(F)(F)F.O=C(O)C(F)(F)F [Compd. of Ex. 10, (3R)-4-[5-amidino-2-(2-carboxyethyl)phenoxy]-3-[4-(1-(1-acetimidoyl)-4-piperidyloxy)benzoylamino]butanoic acid bistrifluoroacetate]	7.4	<3.0
		CC(=N)N1CCC(Oc2ccc(C(=O)NCCOc3cc(C(=N)N)ccc3CCC(=O)O)cc2)CC1.O=C(O)C(F)(F)F.O=C(O)C(F)(F)F [Compd. of Ex. 4, 3-[4-amidino-2-(2-(4-(1-(1-acetimidoyl)-4-piperidyloxy)benzoylamino)ethoxy)phenyl]propionic acid bistrifluoroacetate]	7.5	<3.0
		3-[4-amidino-2-(2-((1-(1-methylpyridinium-4-yl)piperidine-4-carbonyl)amino)ethoxy)phenyl]-2-oxopropionic acid bistrifluoroacetate [Compd. of Ex. 52]	7.1	4.2
		N=C(N)c1ccc(CCC(=O)O)c(OCCNC(=O)C2CCN(c3ccncc3)CC2)c1.O=C(O)C(F)(F)F.O=C(O)C(F)(F)F [Compd. of Ex. 6]	7.4	<3.0
		CN1CCN=C1c1ccc(C(=O)NCCOc2cc(C(=N)N)ccc2CC(=O)C(=O)O)cc1.O=C(O)C(F)(F)F.O=C(O)C(F)(F)F [Compd. of Ex. 51]	8.1	4.3
		N-[2-(5-amidino-2-hydroxyphenoxy)ethyl]-1-(4-pyridyl)-4-piperidine-4-carboxamide bistrifluoroacetate [Compd. of Ex. 15]	8	<4.0

Reference: patent publication US6812231B2, “Benzamidine derivative” (Ajinomoto Co., Inc., priority 1998, dated 2004)
